Calls of active or inactive are those of the source. The calls are words filed in the database; no cut-off is given here.
Key:
B-cell = assay: Induction of DNA repair in mouse B cells assessed as inhibition in H4K20me2 level at 1 to 10 uM incubated for 96 hrs by western blot analysis; format: functional, cell-based; settings: dose 1-10 µM
[1] = biological target: Adenosine receptor A1 (Homo sapiens) (UniProt P30542); assay: Inhibition of human Adenosine receptor A1 at 10 uM relative to control
Homo sapiens [2] = species: Homo sapiens; assay: Inhibition of human GABA-gated Cl- channel at 10 uM relative to control
[3] = biological target: Kappa-type opioid receptor (Homo sapiens) (UniProt P41145); assay: Inhibition of human Kappa-type opioid receptor at 10 uM relative to control
[4] = biological target: Melatonin receptor type 1A (Homo sapiens) (UniProt P48039); assay: Inhibition of human Melatonin receptor type 1A at 10 uM relative to control
[5] = biological target: Mu-type opioid receptor (Homo sapiens) (UniProt P35372); assay: Inhibition of human Mu-type opioid receptor at 10 uM relative to control
[6] = biological target: T1, Muscarinic acetylcholine receptor M2 (Homo sapiens) (UniProt P08172); assay: Inhibition of human Muscarinic acetylcholine receptor M2 at 10 uM relative to control
T1 sequence (whole entry): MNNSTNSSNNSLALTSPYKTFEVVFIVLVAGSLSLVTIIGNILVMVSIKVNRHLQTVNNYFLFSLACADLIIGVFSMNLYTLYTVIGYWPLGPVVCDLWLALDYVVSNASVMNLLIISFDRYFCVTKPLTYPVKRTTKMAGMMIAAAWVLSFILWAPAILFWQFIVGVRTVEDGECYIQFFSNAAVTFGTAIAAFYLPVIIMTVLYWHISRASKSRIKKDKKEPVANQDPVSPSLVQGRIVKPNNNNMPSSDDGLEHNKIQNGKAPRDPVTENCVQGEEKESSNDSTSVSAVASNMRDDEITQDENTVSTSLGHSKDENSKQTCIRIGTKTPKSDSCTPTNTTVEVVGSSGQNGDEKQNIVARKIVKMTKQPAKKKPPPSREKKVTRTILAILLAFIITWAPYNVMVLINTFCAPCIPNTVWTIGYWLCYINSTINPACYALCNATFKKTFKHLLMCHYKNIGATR

Homo sapiens [7] = species: Homo sapiens; assay: Inhibition of human Sodium channel site 2 at 10 uM relative to control
[8] = biological target: C-C chemokine receptor type 1 (Homo sapiens) (UniProt P32246); assay: Inhibition of human C-C chemokine receptor type 1 at 10 uM relative to control
[9] = biological target: 5-hydroxytryptamine receptor 7 (Homo sapiens) (UniProt P34969); assay: Inhibition of human 5-HT7 at 10 uM relative to control
[10] = biological target: T2, 5-hydroxytryptamine receptor 1A (Homo sapiens) (UniProt P08908); assay: Inhibition of human 5-HT1A at 10 uM relative to control
T2 sequence (whole entry): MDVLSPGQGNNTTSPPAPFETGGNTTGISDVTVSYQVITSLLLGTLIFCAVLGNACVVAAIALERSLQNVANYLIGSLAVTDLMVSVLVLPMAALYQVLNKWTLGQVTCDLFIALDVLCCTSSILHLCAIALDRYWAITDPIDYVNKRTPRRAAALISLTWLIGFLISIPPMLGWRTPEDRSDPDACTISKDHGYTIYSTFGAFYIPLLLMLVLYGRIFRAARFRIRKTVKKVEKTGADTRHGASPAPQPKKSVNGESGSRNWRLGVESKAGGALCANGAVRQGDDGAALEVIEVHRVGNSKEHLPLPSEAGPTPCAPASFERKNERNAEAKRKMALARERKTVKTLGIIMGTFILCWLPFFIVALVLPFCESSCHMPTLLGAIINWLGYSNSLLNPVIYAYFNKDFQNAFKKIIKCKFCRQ

Rattus norvegicus [11] = species: Rattus norvegicus; assay: Inhibition of Rat alpha 1-Adrenoceptor at 10 uM relative to control
[12] = biological target: Vasopressin V1a receptor (Homo sapiens) (UniProt P37288); assay: Inhibition of human AVPR V1a at 10 uM relative to control
[13] = biological target: Beta-1 adrenergic receptor (Homo sapiens) (UniProt P08588); assay: Inhibition of human Beta-1 adrenoceptor at 10 uM relative to control
[14] = biological target: D(2) dopamine receptor (Homo sapiens) (UniProt P14416); assay: Inhibition of human D(2) dopamine receptor at 10 uM relative to control
[15] = biological target: Galanin receptor type 2 (Homo sapiens) (UniProt O43603); assay: Inhibition of human GAL2 at 10 uM relative to control
[16] = biological target: B2 bradykinin receptor (Homo sapiens) (UniProt P30411); assay: Inhibition of human BK-2 receptor at 10 uM relative to control
[17] = biological target: 5-hydroxytryptamine receptor 2A (Homo sapiens) (UniProt P28223); assay: Inhibition of human 5-HT2A at 10 uM relative to control
[18] = biological target: Cholecystokinin receptor type A (Homo sapiens) (UniProt P32238); assay: Inhibition of human CCK1 at 10 uM relative to control
[19] = biological target: Neuropeptide Y receptor type 2 (Homo sapiens) (UniProt P49146); assay: Inhibition of human NPY-Y2 receptor at 10 uM relative to control
[20] = biological target: D(1A) dopamine receptor (Homo sapiens) (UniProt P21728); assay: Inhibition of human D(1A) dopamine receptor expressed in HEK293T cells at 10 uM relative to control; format: cell-based
[21] = biological target: Sigma intracellular receptor 2 (Homo sapiens) (UniProt Q5BJF2); assay: Inhibition of human Sigma intracellular receptor 2 at 10 uM relative to control; format: cell-based
Rattus norvegicus [22] = species: Rattus norvegicus; assay: Inhibition of Rat GABAA at 10 uM in the presence of PBR relative to control
[23] = biological target: D(4) dopamine receptor (Homo sapiens) (UniProt P21917); assay: Inhibition of human D(4) dopamine receptor in stable HEK cells at 10 uM relative to control; format: cell-based
[24] = biological target: Alpha-1A adrenergic receptor (Homo sapiens) (UniProt P35348); assay: Inhibition of human Alpha-1A adrenergic receptor at 10 uM relative to control
[25] = biological target: Beta-3 adrenergic receptor (Homo sapiens) (UniProt P13945); assay: Inhibition of human Beta-3 adrenergic receptor expressed in human Flp-In-293 cells at 10 uM relative to control; format: cell-based
[26] = biological target: Histone-lysine N-methyltransferase SUV39H1 (Homo sapiens) (UniProt O43463); assay: Inhibition of SUV39H1 (unknown origin) using Biotin-tagged H4K20me1 and [3H-SAM] as substrate at 1 to 10 uM incubated for 2 hrs by scintillation proximity assay; settings: dose 1-10 µM
[27] = biological target: Histone-lysine N-methyltransferase 2A (Homo sapiens) (UniProt Q03164); assay: Inhibition of MLL1 (unknown origin) using Biotin-tagged H4K20me1 and [3H-SAM] as substrate at 1 to 10 uM incubated for 2 hrs by scintillation proximity assay; settings: dose 1-10 µM
[28] = biological target: Histone-lysine N-methyltransferase, H3 lysine-79 specific (Homo sapiens) (UniProt Q8TEK3); assay: Inhibition of DOT1L (unknown origin) at 1 to 10 uM incubated for 1 hrs by scintillation proximity assay; settings: dose 1-10 µM
[29] = biological target: RAF proto-oncogene serine/threonine-protein kinase (Homo sapiens) (UniProt P04049); assay: Inhibition of human RAF-1 at 10 uM relative to control

Chain of Beta-3 adrenergic receptor (Homo sapiens) (P13945 whole entry, looked up): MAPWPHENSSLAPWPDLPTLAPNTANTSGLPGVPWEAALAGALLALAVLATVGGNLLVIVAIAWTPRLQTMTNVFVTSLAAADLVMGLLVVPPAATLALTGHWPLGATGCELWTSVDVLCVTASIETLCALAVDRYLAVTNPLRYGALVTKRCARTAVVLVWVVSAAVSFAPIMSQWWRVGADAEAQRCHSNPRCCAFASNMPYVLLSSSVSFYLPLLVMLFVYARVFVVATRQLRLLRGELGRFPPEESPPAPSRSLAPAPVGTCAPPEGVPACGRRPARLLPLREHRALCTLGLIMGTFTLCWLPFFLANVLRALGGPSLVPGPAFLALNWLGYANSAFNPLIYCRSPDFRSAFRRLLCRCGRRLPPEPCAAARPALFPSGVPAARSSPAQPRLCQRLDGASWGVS
Chain of D(2) dopamine receptor (Homo sapiens) (P14416 whole entry): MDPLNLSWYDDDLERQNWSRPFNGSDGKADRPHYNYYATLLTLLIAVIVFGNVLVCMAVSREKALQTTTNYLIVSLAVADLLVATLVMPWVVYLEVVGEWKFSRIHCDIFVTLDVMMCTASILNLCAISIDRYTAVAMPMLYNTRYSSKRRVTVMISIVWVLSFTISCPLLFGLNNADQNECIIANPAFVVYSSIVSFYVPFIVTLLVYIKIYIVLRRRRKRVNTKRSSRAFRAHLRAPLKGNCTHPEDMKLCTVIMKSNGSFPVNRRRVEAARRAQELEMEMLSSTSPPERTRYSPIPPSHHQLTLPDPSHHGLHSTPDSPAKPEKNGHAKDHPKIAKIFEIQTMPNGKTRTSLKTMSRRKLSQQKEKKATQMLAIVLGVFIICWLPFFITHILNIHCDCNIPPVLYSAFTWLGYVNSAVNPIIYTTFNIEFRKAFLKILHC
Chain of Melatonin receptor type 1A (Homo sapiens) (P48039 whole entry): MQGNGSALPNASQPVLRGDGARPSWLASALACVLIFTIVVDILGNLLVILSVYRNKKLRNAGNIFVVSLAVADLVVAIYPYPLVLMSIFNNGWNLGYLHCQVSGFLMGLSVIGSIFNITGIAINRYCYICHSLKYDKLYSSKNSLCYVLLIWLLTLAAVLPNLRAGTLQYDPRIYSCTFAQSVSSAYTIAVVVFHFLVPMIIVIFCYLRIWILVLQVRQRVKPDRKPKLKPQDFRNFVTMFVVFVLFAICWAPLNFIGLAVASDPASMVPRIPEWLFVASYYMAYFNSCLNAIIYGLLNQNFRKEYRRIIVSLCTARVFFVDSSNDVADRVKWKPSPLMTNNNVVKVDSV
Chain of Cholecystokinin receptor type A (Homo sapiens) (P32238 whole entry): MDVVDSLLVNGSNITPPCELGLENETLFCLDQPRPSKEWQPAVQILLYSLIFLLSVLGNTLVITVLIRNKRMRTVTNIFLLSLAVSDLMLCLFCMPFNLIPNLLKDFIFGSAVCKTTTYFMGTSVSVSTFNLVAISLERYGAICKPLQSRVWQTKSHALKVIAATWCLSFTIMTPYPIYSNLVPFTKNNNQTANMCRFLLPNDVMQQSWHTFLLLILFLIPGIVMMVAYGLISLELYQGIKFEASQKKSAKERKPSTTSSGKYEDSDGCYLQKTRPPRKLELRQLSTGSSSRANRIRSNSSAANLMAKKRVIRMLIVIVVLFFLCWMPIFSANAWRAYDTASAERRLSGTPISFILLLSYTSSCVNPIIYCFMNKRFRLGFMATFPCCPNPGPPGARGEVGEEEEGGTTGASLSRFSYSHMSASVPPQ
Chain of Neuropeptide Y receptor type 2 (Homo sapiens) (P49146 whole entry): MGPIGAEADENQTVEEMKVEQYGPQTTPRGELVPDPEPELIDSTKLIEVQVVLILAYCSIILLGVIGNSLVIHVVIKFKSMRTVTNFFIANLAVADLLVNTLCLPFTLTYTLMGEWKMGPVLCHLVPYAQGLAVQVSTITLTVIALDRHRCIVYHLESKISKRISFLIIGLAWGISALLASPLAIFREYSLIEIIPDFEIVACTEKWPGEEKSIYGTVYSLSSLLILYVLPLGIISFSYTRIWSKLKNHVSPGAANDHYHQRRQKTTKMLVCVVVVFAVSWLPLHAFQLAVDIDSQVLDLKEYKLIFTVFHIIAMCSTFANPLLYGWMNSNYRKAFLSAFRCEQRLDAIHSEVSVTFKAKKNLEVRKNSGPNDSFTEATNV
Chain of D(4) dopamine receptor (Homo sapiens) (P21917 whole entry): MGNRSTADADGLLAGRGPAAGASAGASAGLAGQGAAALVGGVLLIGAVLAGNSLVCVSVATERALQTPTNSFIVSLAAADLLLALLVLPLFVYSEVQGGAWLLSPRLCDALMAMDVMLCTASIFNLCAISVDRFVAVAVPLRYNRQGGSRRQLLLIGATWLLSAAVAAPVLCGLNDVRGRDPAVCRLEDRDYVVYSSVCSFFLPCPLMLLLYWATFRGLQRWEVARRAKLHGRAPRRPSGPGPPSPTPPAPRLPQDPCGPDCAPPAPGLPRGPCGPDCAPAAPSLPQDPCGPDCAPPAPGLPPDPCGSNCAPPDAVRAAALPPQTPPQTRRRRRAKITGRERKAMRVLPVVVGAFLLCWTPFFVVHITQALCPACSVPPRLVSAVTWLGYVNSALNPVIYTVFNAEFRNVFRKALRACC
Chain of D(1A) dopamine receptor (Homo sapiens) (P21728 whole entry): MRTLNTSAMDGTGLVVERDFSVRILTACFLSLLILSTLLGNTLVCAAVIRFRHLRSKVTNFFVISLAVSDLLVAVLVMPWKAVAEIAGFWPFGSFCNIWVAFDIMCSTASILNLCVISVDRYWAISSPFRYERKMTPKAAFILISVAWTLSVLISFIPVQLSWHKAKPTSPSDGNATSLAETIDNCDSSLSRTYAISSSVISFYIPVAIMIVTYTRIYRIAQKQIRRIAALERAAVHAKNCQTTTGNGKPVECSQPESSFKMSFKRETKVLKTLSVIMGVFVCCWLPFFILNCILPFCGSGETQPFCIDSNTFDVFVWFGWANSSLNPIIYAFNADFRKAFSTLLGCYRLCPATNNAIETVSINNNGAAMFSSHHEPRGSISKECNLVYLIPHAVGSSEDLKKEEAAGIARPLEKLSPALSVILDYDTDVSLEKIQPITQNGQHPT
Chain of Beta-1 adrenergic receptor (Homo sapiens) (P08588 whole entry, looked up): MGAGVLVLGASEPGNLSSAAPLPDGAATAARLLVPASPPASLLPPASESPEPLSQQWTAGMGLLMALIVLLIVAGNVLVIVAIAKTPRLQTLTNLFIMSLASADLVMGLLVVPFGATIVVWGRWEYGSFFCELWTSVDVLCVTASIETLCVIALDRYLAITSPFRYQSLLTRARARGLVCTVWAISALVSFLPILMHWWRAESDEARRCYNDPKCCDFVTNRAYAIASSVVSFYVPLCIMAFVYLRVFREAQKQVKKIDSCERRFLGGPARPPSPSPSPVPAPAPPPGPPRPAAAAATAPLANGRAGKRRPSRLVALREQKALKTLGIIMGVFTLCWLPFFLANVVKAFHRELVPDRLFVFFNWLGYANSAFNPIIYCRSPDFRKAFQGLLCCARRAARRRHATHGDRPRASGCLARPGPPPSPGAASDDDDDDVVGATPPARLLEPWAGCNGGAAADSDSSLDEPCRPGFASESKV
Chain of Kappa-type opioid receptor (Homo sapiens) (P41145 whole entry): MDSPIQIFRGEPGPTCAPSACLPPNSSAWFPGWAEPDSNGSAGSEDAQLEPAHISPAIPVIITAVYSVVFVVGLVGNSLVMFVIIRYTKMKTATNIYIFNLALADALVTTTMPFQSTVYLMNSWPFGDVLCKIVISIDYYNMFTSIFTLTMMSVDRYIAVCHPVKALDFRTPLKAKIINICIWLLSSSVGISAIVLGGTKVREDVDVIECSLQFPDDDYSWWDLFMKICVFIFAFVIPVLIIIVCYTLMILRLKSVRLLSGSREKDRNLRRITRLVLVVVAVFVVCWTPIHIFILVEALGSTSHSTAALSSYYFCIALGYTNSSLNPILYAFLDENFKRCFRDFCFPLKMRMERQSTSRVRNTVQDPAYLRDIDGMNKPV
Chain of Alpha-1A adrenergic receptor (Homo sapiens) (P35348 whole entry): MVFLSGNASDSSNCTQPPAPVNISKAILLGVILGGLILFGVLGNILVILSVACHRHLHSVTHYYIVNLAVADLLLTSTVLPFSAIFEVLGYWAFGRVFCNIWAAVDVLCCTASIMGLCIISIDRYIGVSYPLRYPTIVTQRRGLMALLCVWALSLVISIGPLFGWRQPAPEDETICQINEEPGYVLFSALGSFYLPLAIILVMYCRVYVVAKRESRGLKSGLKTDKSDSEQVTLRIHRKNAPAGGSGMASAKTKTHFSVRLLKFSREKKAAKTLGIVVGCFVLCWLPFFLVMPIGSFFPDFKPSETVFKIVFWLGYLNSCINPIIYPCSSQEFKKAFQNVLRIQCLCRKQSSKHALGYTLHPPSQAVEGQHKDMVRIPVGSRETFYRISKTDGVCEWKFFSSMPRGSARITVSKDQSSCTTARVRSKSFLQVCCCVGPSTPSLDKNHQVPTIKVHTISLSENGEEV
Chain of Vasopressin V1a receptor (Homo sapiens) (P37288 whole entry, looked up): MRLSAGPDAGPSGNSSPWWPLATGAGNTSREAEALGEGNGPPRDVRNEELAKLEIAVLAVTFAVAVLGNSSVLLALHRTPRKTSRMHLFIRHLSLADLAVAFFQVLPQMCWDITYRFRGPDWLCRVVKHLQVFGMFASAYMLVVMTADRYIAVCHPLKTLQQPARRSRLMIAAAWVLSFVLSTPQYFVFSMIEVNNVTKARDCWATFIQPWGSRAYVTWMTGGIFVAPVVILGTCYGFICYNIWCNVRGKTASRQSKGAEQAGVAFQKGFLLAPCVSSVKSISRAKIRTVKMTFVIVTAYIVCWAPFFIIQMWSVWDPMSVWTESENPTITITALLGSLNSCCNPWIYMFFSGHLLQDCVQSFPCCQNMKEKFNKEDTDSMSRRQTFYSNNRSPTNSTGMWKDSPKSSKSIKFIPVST
Chain of Adenosine receptor A1 (Homo sapiens) (P30542 whole entry): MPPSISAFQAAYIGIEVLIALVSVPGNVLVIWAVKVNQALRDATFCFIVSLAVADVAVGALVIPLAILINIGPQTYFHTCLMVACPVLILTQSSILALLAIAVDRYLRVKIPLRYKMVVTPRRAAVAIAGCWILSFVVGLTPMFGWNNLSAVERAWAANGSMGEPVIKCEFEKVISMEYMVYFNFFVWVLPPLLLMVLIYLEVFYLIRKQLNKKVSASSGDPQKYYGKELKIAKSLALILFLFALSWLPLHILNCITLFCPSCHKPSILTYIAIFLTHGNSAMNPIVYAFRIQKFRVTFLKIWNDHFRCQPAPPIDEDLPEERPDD

Compound | inhibition (B-cell) | inhibition [1] | inhibition (Homo sapiens [2]) | inhibition [3] | inhibition [4] | inhibition [5] | inhibition [6] | inhibition (Homo sapiens [7]) | inhibition [8] | inhibition [9] | inhibition [10] | inhibition (Rattus norvegicus [11]) | inhibition [12] | inhibition [13] | inhibition [14] | inhibition [15] | inhibition [16] | inhibition [17] | inhibition [18] | inhibition [19] | also measured
O=C(c1nnc(NC2CCCC2)c2cc(Cl)c(Cl)cc12)N1CCC(O)CC1 | inactive | 55% | 17% | 45% | 17% | 23% | -2% | -5% | -3% | -3% | -1% | 12% | 96% | 11% | 13% | -8% | -4% | -5% | 7% | -5% | inhibition [20]: -1%; inhibition [21]: -1%; inhibition (Rattus norvegicus [22]): 65%; inhibition [23]: -2%; inhibition [24]: -9%; inhibition [25]: -8%
Clc1cc2c(NC3CCCC3)nnc(-c3ccncc3)c2cc1Cl | Active | 98% | 90% | 62% | 34% | 31% | 23% | 17% | 16% | 6% | 5% | 5% | 4% | 3% | 3% | 3% | 1% | -1% | -2% | -8% | inhibition [26]: inactive; inhibition [27]: inactive; inhibition [28]: inactive; inhibition [29]: 8%; inhibition [20]: 2%; inhibition [21]: 1%; inhibition (Rattus norvegicus [22]): 1%; inhibition [23]: 1%; inhibition [24]: -3%; inhibition [25]: -9%
